# Experimental data as given in US20100015126A1, “Methods of Binding of Cross-Beta Structures By Chaperones” (priority 2006, published 2010).
# Tests used:
# [1] = tested on: freshly isolated human platelets; experiment: Crossbeta-induced human platelet aggregation (aggregometer); format: cell-based
# Procedure: Ex vivo Human Blood Platelet Aggregation Assay
# The influence of crossbeta structure binding chaperones on blood platelet aggregation induced by crossbeta structure or crossbeta structure comprising pathogens is tested with washed platelets or with platelet rich plasma in an aggregometric assay. Freshly drawn human aspirin free blood is mixed gently with citrate buffer to avoid coagulation. Blood is spinned for 15′ at 150*g at 20° C. and supernatant is collected; platelet rich plasma (PRP). Buffer with 2.5% trisodium citrate, 1.5% citric acid and 2% glucose, pH 6.5 is added to a final volume ratio of 1:10 (buffer-PRP). After spinning down the platelets upon centrifugation for 15′ at 330*g at 20° C., the pellet is resuspended in HEPES-Tyrode buffer pH 6.5. Prostacyclin is added to a final concentration of 10 ng/ml, and the solution is centrifuged for 15′ at 330*g at 20° C., with a soft brake. The pellet is resuspended in HEPES-Tyrode buffer pH 7.2 in a way that the final platelet number is adjusted to 200,000-250,000 platelets/μl. Platelets are kept at 37° C. for at least 30′, before use in the assays, to ensure that they are in the resting state. Platelets of approximately five donors are isolated separately.
# For the aggregometric assays, platelet solution is added to a glass tube and prewarmed to 37° C. A stirring magnet is added and rotation is set to 900 rpm, and the apparatus (Whole-blood aggregometer, Chrono-log, Havertown, Pa., USA) is blanked. A final volume of 1/10 of the volume of the platelet suspension is added, containing the agonist of interest and/or the premixed antagonist of interest, prediluted in HEPES-Tyrode buffer pH 7.2. Aggregation is followed in time by measuring the absorbance of the solution, that is decrease in time upon platelet aggregation. As a positive control, either 10 μg/ml collagen (Kollagenreagens Horm, NYCOMED Pharma GmbH, Linz, Austria; lot 502940), or 5 μM of synthetic thrombin receptor activating compound TRAP. In tests to analyse the effect of chaperones, 10-100 μg/ml glycated haemoglobin or 10-100 μg/ml amyloid-β is used to induce platelet aggregation. Aggregation is recorded for at least 15′.
# Platelet aggregation-studies with freshly isolated human platelets were performed as described above. For aggregation studies, platelets of four separate donors were used on subsequent days.
# [2] = tested on: human monocyte-derived dendritic cells; experiment: FACS: binding of misfolded proteins and BiP to human monocyte-derived dendritic cells; format: cell-based
# From the text: In vitro generation of peripheral blood human monocyte-derived dendritic cells, and analyses for binding of misfolded proteins and BiP
# Human DCs are generated from non-proliferating precursors selected from peripheral blood mononuclear cells (PBMCs), essentially by published methods (Sallustro and Lanzavecchia [1994], J. Exp. Med. 179 1109-1118). Relative abundant presence of CD1a, CD32, CD36, CD40, CD54, CD86, HLA-DR and CD206 and relative low content of CD14 positive, CD16 positive, CD64 positive, CD80 positive, CD83 positive and CD163 positive cells serve as a quality measure for the immature DCs. After obtaining the immature DCs upon stimulation with GM-CSF and IL-4, direct binding of misfolded proteins and BiP to the DCs is assessed by incubating 200.000 cells (2*10^6 cells/ml) for 30 minutes at 4° C. under metabolic arrested state, with 1) PBS, 2) 58 μg/ml BiP (830 nM), 4) 250 μg/ml BSA-AGE (3.6 μM), 5) BSA-AGE+BiP, 6) 250 μg/ml oxLDL, 7) oxLDL+BiP, 8) mixture of BiP-binding peptides 6BB8-11, 13 (see Table 5), 125 μg/ml+BiP, and 8) 62.5 μg/ml Aβ16-22, 62.5 μg/ml Aβ25-35+BiP. After the incubation and careful washing of the cells, binding of BiP, BSA-AGE and oxLDL is assessed with FACS, using primary antibodies monoclonal anti-FLAG antibody, monoclonal anti-glycated human fibronectin antibody 4B5 and rabbit serum with anti-human apoliprotein B-100 antibody (Dade Behring, Newark, Del., USA), and the appropriate FITC- or PE-labeled secondary antibody. Mean fluorescence intensity (MFI) ratio's are determined by measuring background fluorescence.
# HUVECs = experiment: FACS: binding of misfolded proteins and BiP to HUVECs; format: cell-based, human
# Procedure: For these experiments HUVECs were isolated by trypsinization. After trypsinization cells were collected in RPMI 1640, containing P/S and 10% FCS and centrifuged. After centrifugation cells were resuspended in RPMI medium without FCS at a concentration of 1.250.000 cells/250 μl. Individual 4-ml tubes (polypropylene, Greiner), containing 250 μl cell suspensions were made. To each tube 75 μl of a sample, containing either, • a. buffer (PBS) only, or • b. 25 μl PBS+50 μl BiP (1.16 mg/ml), or • c. 50 μl buffer with 25 μl oxLDL (1 mg/ml), or • d. 74 μl buffer with 1 μl BSA-AGE (25 mg/ml), or • e. 24 μl PBS+1 μl BSA-AGE (25 mg/ml)+50 μl BiP (1.16 mg/ml), or • f. 25 μl oxLDL (1 mg/ml)+50 μl BiP (1.16 mg/ml), • g. 1.6 μl dIgIV-65 (20 mg/ml)+73.4 μl PBS • h. […]
# was added. Subsequently, the cells were incubated with the sample for approximately 30 minutes at 4° C. Next, cells were pelleted by centrifugation and the supernatant was discarded. Cells were washed subsequently with FACS buffer (PBS/0.5% BSA/0.05% m/v NaN3) at 4° C. and resuspended in FACS-buffer at approximately 1*10^5 cells/100 μl for subsequent analysis. Cell death was determined by adding 3 μl 7-aminoactinomycin D (7AAD) solution (prepared according to standard procedures). Binding of sample BSA-AGE (see elsewhere in this application for preparation details) was determined with anti-AGE monoclonal antibody 4B5 (10 μg/ml) and, after washing, with goat anti-mouse PE secondary antibodies (Jackson Immunoresearch, West Grove, USA). Binding of BSA-AGE was also assessed using the intrinsic fluorescence of BSA-AGE in the PE channel. Binding of oxidized LDL (oxLDL, oxidized for 56% following incubation with FeSO4; specific enhancement of Thioflavin T fluorescence) was determined with rabbit serum with anti-ApoB100 polyclonal antibodies at a concentration of 160 μg/ml and, after washing the cells, with FITC-labelled goat anti-rabbit antibodies (1:200, Jackson). Binding of dIgIV-65 was assessed by using anti-Human IgG antibody. BiP binding was determined using the earlier mentioned anti-FLAG antibody (M2, Sigma-Aldrich).
# [3] = tested on: freshly isolated human platelets; experiment: Crossbeta-induced human platelet aggregation (aggregometer); format: cell-based; details: 8 μM TRAP
substance,measurement,setting,value
"BiP: Recombinant human HSP70 family chaperone BiP with C-terminal linker, FLAG-tag and His-tag, expressed in HEK 293E cells","Platelet aggregation by protein alone, without activator",[1],did not induce platelet aggregation
same,Misfolded protein induced platelet aggregation,"[1]; activators Aβ42t=0, HbAGE, BSA-AGE, four donors",potently inhibited
same,Platelet aggregation induced by amyloid-β1-42,[1]; donor a,strongly inhibited
same,Platelet aggregation induced by crossbeta BSA-AGE,[1]; donor a,strongly inhibited
same,Platelet aggregation induced by Aβ1-42,"[1]; donor b, Aβ42t=0 26.7 μg/ml",inhibited
same,Platelet aggregation induced by crossbeta BSA-AGE,"[1]; donor b, BSA-AGE 33.3 μg/ml",strongly inhibited
same,Aβ42 induced platelet activation,[1]; donor c,abolish
same,BSA-AGE induced platelet aggregation,[1]; donor c,inhibit
same,HbAGE induced platelet aggregation,[1]; donor c,inhibited
same,HbAGE induced platelet aggregation,"[1]; donor d, BiP 58 μg/ml, sRAGE 37.4 μg/ml, HbAGE 80 μg/ml",inhibits
same,Binding of BiP to DCs (MFI ratio),"[2]; BiP alone, 58 μg/ml, 30 minutes at 4° C.",1.4
same,"Binding to DCs (MFI ratio), BiP","[2]; FACS, human dendritic cells, detection of BiP, signal divided by background signal",1.4
same,Binding of BiP to HUVECs (MFI ratio),HUVECs; BiP alone,1.4
same,Binding of BiP to ECs,HUVECs; co-incubated with dIgIV-86,neither BiP did bind
same,TRAP-induced platelet aggregation,[3],unaffected
